In US10344019B2 (priority 2010, dated 2019):
Read-outs that look alike come from different tables or passages of the source.

Columns and labels:
Format in all cases: cell-based
[1] = tested on: HCV 2a Rluc cells (NS5A chimeric genotype 2a JFH-1 replicon with genotype 2a J6 strain NS5A gene, M31 present); assay: HCV replicon reporter assay, genotype 2a J6 (M31 present); details: Hepatitis C virus, read-out: 2a J6
Method in brief: (§1)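 Renilla luciferase HCV replicon cells: dicistronic 1b Con1, 1a H77 or 2a JFH-1 replicons, or a JFH-1 chimera carrying J6 NS5A (M31 present). Compound in DMSO serial dilutions, 72 h incubation, then lysis and luciferase read. EC50 by non-linear regression.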

[2] = tested on: HCV 2b Rluc cells (NS5A chimeric genotype 2a JFH-1 replicon with genotype 2b MD2b-1 NS5A gene, M31 present); assay: microbe, parasite or virus in culture; details: Hepatitis C virus, read-out: 2b
Method in brief: (§2)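 Replicon cells stably carrying the listed RLuc-encoding dicistronic replicons were seeded and treated with DMSO serial dilutions of compound (10 mM stocks) diluted into culture medium. After 72 h, cells were lysed and Renilla luciferase activity measured. EC50 was derived by non-linear regression.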

[3] = tested on: HCV 1b RLuc cells (dicistronic genotype 1b Con1 replicon, RLuc reporter); assay: microbe, parasite or virus in culture; details: Hepatitis C virus, read-out: 1b (nM)
Method in brief: as §1

[4] = tested on: HCV 4a Rluc cells (NS5A chimeric genotype 1b Con1 replicon with genotype 4a NS5A gene); assay: microbe, parasite or virus in culture; details: Hepatitis C virus, read-out: 4a
Method in brief: as §2

[5] = tested on: HCV 1a RLuc cells (dicistronic genotype 1a H77 replicon, RLuc reporter); assay: microbe, parasite or virus in culture; details: Hepatitis C virus, read-out: 1a
Method in brief: as §1

[6] = tested on: HCV 2a JFH-1 Rluc cells (dicistronic genotype 2a JFH-1 replicon, RLuc reporter); assay: microbe, parasite or virus in culture; details: Hepatitis C virus, read-out: 2a JFH
Method in brief: as §1

[7] = tested on: HCV 3a RLuc cells (NS5A chimeric genotype 1b Con1 replicon with consensus genotype 3a NS5A gene); assay: microbe, parasite or virus in culture; details: Hepatitis C virus
Method in brief: as §2

[8] = read-out: 3a, genotype 3a replicon
[9] = genotype 2a JFH-1 RLuc replicon
[10] = read-out: 3a, genotype 3a NS5A chimeric replicon

COC(=O)N[C@H](C(=O)N1CC2(C[C@H]1c1nc3ccc4cc(-c5ccc6c(c5)CCc5nc(C7CCCN7C(=O)[C@H](NC(=O)OC)c7ccccc7)[nH]c5-6)ccc4c3[nH]1)OCCO2)C(C)C (stereo partly shown) [Example 365]
EC50 [1]: 0.001 to 0.999 nM | EC50 [2]: 0.001 to 0.999 nM | EC50 [3]: 0.11 nM | EC50 [4]: 0.001 to 0.99 nM | EC50 ([5]; genotype 1a replicon): 0.001 to 0.999 nM | EC50 ([6]; genotype 2a JFH-1 replicon): 0.001 to 0.999 nM | EC50 [7, 8]: 0.001 to 0.99 nM

COC(=O)N[C@H](C(=O)N1CCC[C@H]1c1ncc(-c2ccc3c4c(ccc3c2)-c2ccc(-c3cnc([C@@H]5CCCN5C(=O)[C@H](NC(=O)OC)c5ccccc5)[nH]3)cc2CO4)[nH]1)[C@@H](C)OC [Example 16]
EC50 [1]: 1 to 44 nM | EC50 [2]: 1 to 44 nM | EC50 ([3]; 72 h): 0.011 nM | EC50 [4]: 0.001 to 0.99 nM | EC50 ([5]; 72 h, Table 1, genotype 1a H77 replicon, 72 hours): 0.001 to 0.999 nM | EC50 ([6]; 72 h, Table 1, genotype 2a JFH-1 replicon, 72 hours): 0.001 to 0.999 nM | EC50 ([7]; read-out: 3a, Table 1, genotype 3a NS5A chimeric replicon): 0.001 to 0.99 nM

COC(=O)N[C@H](C(=O)N1CCC[C@H]1c1nc2ccc3c(F)c(-c4ccc5c(ccc6nc([C@@H]7CCCN7C(=O)[C@@H](NC(=O)OC)C(C)C)[nH]c65)c4F)ccc3c2[nH]1)C(C)C [Example 457]
EC50 [1]: > 44 nM | EC50 [2]: > 44 nM | EC50 [3]: 0.009 nM | EC50 [4]: 0.001 to 0.99 nM | EC50 ([5]; genotype 1a replicon): 0.001 to 0.999 nM | EC50 ([6]; genotype 2a JFH-1 replicon): 0.001 to 0.999 nM | EC50 [7, 8]: 0.001 to 0.99 nM

CCC(=O)N[C@@H](C(=O)N1CCC[C@H]1c1ncc(-c2ccc(-c3ccc4c(ccc5nc([C@@H]6C[C@H](COC)CN6C(=O)[C@@H](NC(=O)OC)C(C)C)[nH]c54)c3)cc2)[nH]1)c1ccccc1 [Example 479]
EC50 [1]: 0.001 to 0.999 nM | EC50 [2]: 0.001 to 0.999 nM | EC50 [3]: 0.034 nM | EC50 [4]: 0.001 to 0.99 nM | EC50 ([5]; genotype 1a replicon): 0.001 to 0.999 nM | EC50 ([6]; genotype 2a JFH-1 replicon): 0.001 to 0.999 nM | EC50 [7, 8]: 0.001 to 0.99 nM

O=C(N[C@@H](C(=O)N1CCC[C@H]1c1ncc(-c2cc3c4c(c2)OCc2cc(-c5cnc([C@@H]6CCCN6C(=O)[C@H](NC(=O)C6CCCC6)c6ccccc6)[nH]5)cc(c2-4)OC3)[nH]1)c1ccccc1)C1CCCC1 [Example 489]
EC50 [1]: 0.001 to 0.999 nM | EC50 [2]: 0.001 to 0.999 nM | EC50 [3]: 0.048 nM | EC50 [4]: 0.001 to 0.99 nM | EC50 ([5]; genotype 1a H77 RLuc replicon): 0.001 to 0.999 nM | EC50 [6, 9]: 0.001 to 0.999 nM | EC50 [7, 10]: 0.001 to 0.99 nM

COC[C@@H]1C[C@@H](c2nc3c([nH]2)-c2cc4c(cc2CC3)-c2ccc(-c3cnc([C@@H]5CCCN5C(=O)[C@@H](NC(=O)OC)C(C)C)[nH]3)cc2CO4)N(C(=O)[C@@H](NC(=O)OC)C(C)C)C1 [Example 493]
EC50 [1]: > 44 nM | EC50 [2]: 0.001 to 0.999 nM | EC50 [3]: 0.03 nM | EC50 [4]: 0.001 to 0.99 nM | EC50 ([5]; genotype 1a H77 RLuc replicon): 0.001 to 0.999 nM | EC50 [6, 9]: 0.001 to 0.999 nM | EC50 [7, 10]: 0.001 to 0.99 nM

COC(=O)N[C@@H](C(=O)N1C[C@@H](C)C[C@H]1c1ncc(-c2cc3c4c(c2)OCc2cc(-c5cnc([C@@H]6C[C@H](C)CN6C(=O)[C@H](NC(=O)OC)c6ccccc6)[nH]5)cc(c2-4)OC3)[nH]1)c1ccccc1 [Example 505]
EC50 [1]: 0.001 to 0.999 nM | EC50 [2]: 0.001 to 0.999 nM | EC50 [3]: 0.019 nM | EC50 [4]: 0.001 to 0.99 nM | EC50 ([5]; genotype 1a H77 RLuc replicon): 0.001 to 0.999 nM | EC50 [6, 9]: 0.001 to 0.999 nM | EC50 [7, 10]: 0.001 to 0.99 nM

COC[C@H]1C[C@@H](c2nc3ccc4cc(-c5ccc6c(ccc7nc([C@@H]8C[C@H]9C[C@H]9N8C(=O)[C@@H](NC(=O)OC)C(C)C)[nH]c76)c5)ccc4c3[nH]2)N(C(=O)[C@@H](NC(=O)OC)C(C)C)C1 [Example 471]
EC50 [1]: 0.001 to 0.999 nM | EC50 [2]: 1 to 44 nM | EC50 [3]: 0.015 nM | EC50 [4]: 0.001 to 0.99 nM | EC50 ([5]; genotype 1a replicon): 0.001 to 0.999 nM | EC50 ([6]; genotype 2a JFH-1 replicon): 0.001 to 0.999 nM | EC50 [7, 8]: 0.001 to 0.99 nM

CNC(=O)N[C@@H](C(=O)N1CCC[C@H]1c1ncc(-c2cc3c4c(c2)OCc2cc(-c5cnc([C@@H]6CCCN6C(=O)[C@H](NC(=O)NC)c6ccccc6)[nH]5)cc(c2-4)OC3)[nH]1)c1ccccc1 [Example 447]
EC50 [1]: 0.001 to 0.999 nM | EC50 [2]: 0.001 to 0.999 nM | EC50 [3]: 2.05 nM | EC50 [4]: 0.001 to 0.99 nM | EC50 ([5]; genotype 1a replicon): 1 to 44 nM | EC50 ([6]; genotype 2a JFH-1 replicon): 0.001 to 0.999 nM | EC50 [7, 8]: 0.001 to 0.99 nM

COC(=O)N[C@H](C(=O)N1CCC[C@H]1c1nc2ccc3cc(-c4ccc5c(ccc6nc([C@@H]7[C@H]8CC[C@H](C8)N7C(=O)[C@H](NC(=O)C7CC7)c7ccccc7)[nH]c65)c4)ccc3c2[nH]1)C(C)C [Example 455]
EC50 [1]: 0.001 to 0.999 nM | EC50 [2]: 0.001 to 0.999 nM | EC50 [3]: 0.029 nM | EC50 [4]: 0.001 to 0.99 nM | EC50 ([5]; genotype 1a replicon): 0.001 to 0.999 nM | EC50 ([6]; genotype 2a JFH-1 replicon): 0.001 to 0.999 nM | EC50 [7, 8]: 0.001 to 0.99 nM
